This is an account of results in doi:10.1101/2023.10.24.563163v2, “Targeting cancer with small molecule pan-KRAS degraders” (biorxiv, 2024).

The subject of one assay is GP2d. Nature of the assay: cells. Further details: Inhibition of cell proliferation, 5 days. As to conditions: 120 h, read-out: IC50 Proliferation GP2d. From the text: (§1) Next, we set out to test the ability of a single pan-KRAS degrading molecule, compound 4, to selectively suppress oncogenic signaling and proliferation in cancer cell lines driven by diverse KRAS mutants. To this end, we first confirmed degradation of KRAS by compound 4 in KRAS-dependent (GP2d, SW620 and NCI-H358 expressing KRAS^G12D, - G12V or -G12C, respectively) as well as in KRAS independent (A-375, HEK293) cell lines (Fig. 3A, fig. S4A). […] Both inhibition and degradation repressed the established markers of MAPK signaling pERK (fig. S4B-D) and DUSP6 (Fig. 3B, fig. S4E) in KRAS dependent cell lines. […] Neither degradation nor inhibition had appreciable antiproliferative effects in the KRAS independent cell lines A-375 and HEK293 (Fig. 3C, fig. S4F). […] Pan-KRAS degradation impacts MAPK signaling and cancer cell proliferation.

The subject of the next assay is SW620. The assay is described as follows: cells. Further details: Inhibition of cell proliferation, 5 days. Conditions: Homo sapiens, SW-620, 120 h; read-out: IC50 Proliferation SW620.
Description: as §1

A further assay concerns the target T1, HiBiT-KRAS^G12D (Homo sapiens, UniProt P01116, G12D).
T1 construct: HiBiT-tagged
Nature of the assay: cell-based. Further details: HiBiT-KRAS degradation, split nanoluciferase lytic detection. As to conditions: GP5d; read-out: Dmax 24 h GP5d HiBiT [%]. How it is done: This formula was derived from the Growth Inhibition (GI) calculation used in the National Cancer Institute’s NCI-60 high-throughput screen. KRAS Degradation Assays via Detection of Split Nanoluciferase (HiBiT) To assess PROTAC-mediated degradation of HiBiT-tagged KRAS constructs, cells were seeded at 25 000 cells per well in culture medium into white bottom opaque 96-well plates (Perkin Elmer cat no. 5680). Plates were incubated at 37 °C, 5% CO2 in a humidified incubator over night to allow the cells to adhere. Test compounds (10 mM stock in DMSO) were added at logarithmic dose series using the HP Digital Dispenser D300 (Tecan), normalizing for added DMSO. […] Following incubation, 100 µL per well Promega Nano-Glo HiBiT lytic detection reagent mix (Promega Nano-Glo HiBiT Lytic Detection System #N3050), prepared according to the manufacturer´s instructions in the kit, were added. To allow for adequate cell lysis, plates were incubated on an orbital shaker for 15 min. and further incubated 30 min. at room temperature. Upon completion of cell lysis, luminescence was measured using an Envision plate reader using the Ultrasensitive Luminescence Protocol for 96-well plates. Luminescence levels were normalized by the values obtained with DMSO-treated samples and plotted as percent of DMSO control. DC50 values were computed using a three parametric logistic model. Dmax values represent the maximal extent of degradation observed and are stated as percent of control treatments.

The next assay has as its target T2, KRAS^G12D GDP (Homo sapiens, UniProt P01116, C118S/G12D).
T2 construct: residues 1-169, C118S background
The assay is described as follows: biochemical. Further details: SPR binary and ternary complex binding affinity and kinetics. As to conditions: GDP-bound; read-out: SPR KRAS^G12D GDP KD. From the text:
(§2) With the objective of identifying molecules that potently degrade multiple KRAS mutants we next sought to employ structure-based design using the solved ternary co-crystal structure of compound 3 to improve ternary complex stability and intracellular VHL engagement. […] Analysis of the VCB:compound 3:KRAS^G12V co-crystal structure (Fig. 1H) highlighted an opportunity to enhance interactions within the ternary complex by improving π-stacking between the exit vector amide of the VHL ligand and Tyr112. We therefore switched the amide for an isoxazole, which has been previously reported to improve VCB affinity in this position in other contexts ([22]), yielding compound 4 (Fig. 2A). A ternary complex co-crystal structure of VCB:compound 4:KRAS^G12V (PDB 8QW7) confirmed a consistent overall binding mode to that observed for compound 3 (RMSD = 0.72 Å), with compound 4 able to engage in π-stacking interaction between the isoxazole and Tyr112 of VCB as designed (Fig. 2B). […] FP, SPR and cellular target engagement studies support a minor improvement in binary VHL engagement for compound 4, with moderate cooperativity retained (fig. S2A-C, table S1). […] We then investigated the impact of these structural changes on degradation kinetics in live HiBiT-tagged GP5d cells (fig. S3A-D). […] Aiming to measure ternary complex stability, we noted that the FP assay reached the limits of quantification due to ternary KD approaching that of the assay probe (fig. S8B).

A further assay has as its target T3, KRAS (Homo sapiens, UniProt P01116, C118S/G12V).
T3 construct: residues 1-169, C118S background; His6 tag removed, E. coli; biotinylated for SPR
Nature of the assay: biochemical. As to conditions: GDP-bound; read-out: SPR KRAS^G12V GDP KD. Further details: SPR binary and ternary complex binding affinity and kinetics.
Description: as §2

Assay [1] deals with T4, VHL:EloC:EloB (VCB) complex (Homo sapiens, UniProt P40337).
T4 construct: VHL 54-213 (His6 tag removed by TEV), EloC 17-112, EloB 1-104 co-expressed in E. coli; heterotrimer; with Elongin-C; Elongin-B
Nature of the assay: biochemical. As to conditions: SPR, binary. Details: SPR binary and ternary complex binding affinity and kinetics.
Description: as §2

T3 sequence (P01116 1-169 G12V/C118S): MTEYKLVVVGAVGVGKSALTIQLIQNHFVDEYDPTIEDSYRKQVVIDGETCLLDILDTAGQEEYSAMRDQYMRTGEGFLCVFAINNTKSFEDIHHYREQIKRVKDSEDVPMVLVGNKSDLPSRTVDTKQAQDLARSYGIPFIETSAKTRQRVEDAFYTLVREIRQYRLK
T1 sequence (P01116 whole entry G12D): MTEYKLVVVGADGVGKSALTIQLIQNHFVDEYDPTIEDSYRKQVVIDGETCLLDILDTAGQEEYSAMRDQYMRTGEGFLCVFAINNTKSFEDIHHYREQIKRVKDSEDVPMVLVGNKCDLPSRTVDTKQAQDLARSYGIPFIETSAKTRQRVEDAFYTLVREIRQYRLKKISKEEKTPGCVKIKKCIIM
T2 sequence (P01116 whole entry G12D/C118S, the tested form may be a part): as the sequence (P01116 whole entry G12D) above, with C118S counted along it
T4 sequence (Q15369 17-112): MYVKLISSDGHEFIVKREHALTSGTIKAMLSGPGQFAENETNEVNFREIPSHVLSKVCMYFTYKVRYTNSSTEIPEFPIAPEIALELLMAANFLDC
T4 sequence (Q15370 1-104, further chain): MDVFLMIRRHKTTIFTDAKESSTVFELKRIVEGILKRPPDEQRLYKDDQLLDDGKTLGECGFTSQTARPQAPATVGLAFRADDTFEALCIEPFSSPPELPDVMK
T4 sequence (P40337 54-213): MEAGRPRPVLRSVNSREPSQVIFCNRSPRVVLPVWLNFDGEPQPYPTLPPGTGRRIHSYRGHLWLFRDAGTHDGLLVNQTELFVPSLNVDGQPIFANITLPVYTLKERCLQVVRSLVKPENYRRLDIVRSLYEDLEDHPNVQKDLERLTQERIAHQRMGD

With `Cc1ncsc1-c1ccc(CNC(=O)C2CC(O)CN2C(=O)C(c2cc(OCCCCN3CCCN(c4nccc(-c5noc(C6(C)CCCc7sc(N)c(C#N)c76)n5)n4)C(C)C3)no2)C(C)C)cc1` (stereo not shown) [compound 5], the IC50 with GP2d worked out at 1740 nM; with SW620, 993 nM.

Turning to `Cc1ncsc1-c1ccc(CNC(=O)[C@@H]2C[C@@H](O)CN2C(=O)[C@@H](c2cc(OCCCCN3CCCN(c4nccc(-c5noc([C@@]6(C)CCCc7sc(N)c(C#N)c76)n5)n4)[C@@H](C)C3)no2)C(C)C)cc1` [compound 4], the Dmax at HiBiT-KRAS^G12D is 94%. Moreover, the Kd at KRAS^G12D GDP was 11 ± 1 nM; on KRAS it was 8 nM. The IC50 with GP2d is 8.3 nM; in the assay with SW620, 11 nM.

For the compound `Cc1ncsc1-c1ccc(CNC(=O)[C@@H]2C[C@@H](O)CN2C(=O)[C@@H](NC(=O)CCCCCN2CCCN(c3nccc(-c4noc([C@@]5(C)CCCc6sc(N)c(C#N)c65)n4)n3)[C@@H](C)C2)C(C)(C)C)cc1` [compound 3], the greatest degradation seen (Dmax) at HiBiT-KRAS^G12D came to 95%. Further, the Kd at KRAS^G12D GDP turned out to be 13 ± 2 nM; at KRAS, 9 ± 1 nM. The kon in assay [1] (read-out: SPR VCB kon [1/(M s)]) is 136000 M⁻¹ s⁻¹. In addition, the IC50 in the assay with GP2d stood at 374 nM; with SW620, 232 nM.

On to `Cc1ncsc1-c1ccc([C@H](CO)NC(=O)[C@@H]2C[C@@H](O)CN2C(=O)[C@H](C(C)C)n2cc(OCCCCN3CCCN(c4nccc(-c5noc([C@@]6(C)CCCc7sc(N)c(C#N)c76)n5)n4)[C@@H](C)C3)nn2)cc1` [compound 7, ACBI3], for which the maximal degradation (Dmax) on HiBiT-KRAS^G12D was determined as 95%. This compound registered a Kd in assay [1] of 11.1 ± 0.3 nM.

On to `Cc1ncsc1-c1ccc(CNC(=O)[C@@H]2C[C@@H](O)CN2C(=O)[C@@H](NC(=O)COCCCN2CCCN(c3nccc(-c4noc([C@@]5(C)CCCc6sc(N)c(C#N)c65)n4)n3)[C@@H](C)C2)C(C)(C)C)cc1` [compound 2], for which the maximal degradation (Dmax) on HiBiT-KRAS^G12D was found to be 100%. Further, the values for the Kd (on KRAS^G12D GDP; at KRAS; in assay [1]) were 240 ± 31 nM, 136 ± 1 nM and 737 ± 388 nM, respectively.
